Source: the supplement of paper PMC11061612

Columns and labels:
[1] = test system: OCUM-1 (Gastric Carcinoma); assay: combination Emax (second highest fraction inhibited in the dose matrix, 72 h); higher = more inhibition; extreme values may be limits of the assay
Procedure, shortened: (§1)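 Cell lines in DMEM/F12 or RPMI with 10% FBS were plated in 1536-well plates, held 24 hours at 37°C, 5% CO2, then given two-drug dose matrices for 72 hours (DMSO typically 0.2%). Viability was read by CellTiter-Glo 2.0 luminescence and scaled as inhibition from 0 (vehicle wells) to 1 (blank wells). Combination Emax is the second-highest inhibition in the matrix; Bliss excess is observed combination effect minus expected EA + EB − EA·EB, EA and EB being single-agent effects.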

[2] = test system: OCUB-M (Breast Carcinoma); assay: as above
Procedure, shortened: as §1

[3] = test system: HuP-T3 (Pancreatic Carcinoma); assay: as above
Procedure, shortened: as §1

[4] = test system: NCI-H2347 (Lung Adenocarcinoma); assay: as above
Procedure, shortened: as §1

GI-1 (Glioblastoma) = assay: as above
Procedure, shortened: as §1

[5] = test system: H-EMC-SS (Chondrosarcoma); assay: as above
Procedure, shortened: as §1

NH-12 (Neuroblastoma) = assay: Bliss excess, mean over the matrix (fraction); higher = more synergy
Procedure, shortened: as §1

[6] = test system: SCC-3 (B-Cell Non-Hodgkin's Lymphoma); assay: as above
Procedure, shortened: as §1

[7] = test system: EBC-1 (Squamous Cell Lung Carcinoma); assay: as above
Procedure, shortened: as §1

[8] = test system: KYSE-50 (Esophageal Squamous Cell Carcinoma); assay: as above
Procedure, shortened: as §1

[9] = test system: ASH-3 (Thyroid Gland Carcinoma); assay: as above
Procedure, shortened: as §1

[10] = test system: LC4-1 (B-Lymphoblastic Leukemia); assay: as above
Procedure, shortened: as §1

[11] = test system: LOU-NH91 (Squamous Cell Lung Carcinoma); assay: as above
Procedure, shortened: as §1

[12] = test system: EMC-BAC-2 (Non-Small Cell Lung Carcinoma); assay: as above
Procedure, shortened: as §1

[13] = test system: PF-382 (T-Lymphoblastic Leukemia); assay: as above
Procedure, shortened: as §1

[14] = test system: PFSK-1 (Other Solid Carcinomas); assay: as above
Procedure, shortened: as §1

BT-20 (Breast Carcinoma) = assay: as above
Procedure, shortened: as §1

[15] = test system: OVISE (Ovarian Carcinoma); assay: as above
Procedure, shortened: as §1

[16] = test system: H-EMC-SS (Chondrosarcoma); assay: as above
Procedure, shortened: as §1

[17] = test system: NCI-H513 (Other Solid Carcinomas); assay: combination Emax (second highest fraction inhibited in the dose matrix, 72 h); higher = more inhibition; extreme values may be limits of the assay
Procedure, shortened: as §1
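Throughout, for Bliss excess, mean over the matrix: after 72 h of two-drug dosing.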

Structure (SMILES) | combination Emax [1] | combination Emax [2] | combination Emax [3] | combination Emax [4] | combination Emax (GI-1 (Glioblastoma)) | combination Emax [5] | Bliss excess (NH-12 (Neuroblastoma)) | Bliss excess [6] | Bliss excess [7] | Bliss excess [8] | Bliss excess [9] | Bliss excess [10] | Bliss excess [11] | Bliss excess [12] | Bliss excess [13] | Bliss excess [14] | Bliss excess (BT-20 (Breast Carcinoma)) | Bliss excess [15] | Bliss excess [16] | combination Emax [17]
Cc1c2c(nn1C)CSCc1cc(n(C)n1)CSc1cc(c3ccccc3c1)OCCCc1c(C(=O)O)n(C)c3c-2c(Cl)ccc13 [AZD5991] + C1CN(CCC1(C(=O)N[C@@H](CCO)C2=CC=C(C=C2)Cl)N)C3=NC=NC4=C3C=CN4 [Capivasertib] (first compound max 1 µM, 7x7, partner max 3 µM) | 0.219 | 1 | 0.228 | 0.134 | 0.949 | 0.647 | 0.0395 | 0.102 | 0.0259 | -0.0036 | -0.0769 | 0.0364 | 0.0122 | 0.0302 | -0.0203 | 0.0384 | 0.131 | -0.0651 | -0.0227 | 
CS(=O)(=O)CCNCc1ccc(-c2ccc3ncnc(Nc4ccc(OCc5cccc(F)c5)c(Cl)c4)c3c2)o1 [Lapatinib] + NC1(c2ccc(-c3nc4ccn5c(=O)[nH]nc5c4cc3-c3ccccc3)cc2)CCC1 [MK-2206] (first compound max 10 µM, 7x7, partner max 10 µM) | 0.843 | 1 |  | 0.188 | 0.899 | 0.316 |  |  |  |  | 0.0178 | -0.0073 |  |  | -0.0144 | -0.0286 |  | 0.0286 | -0.0597 | 0.386
COc1nnc2ccc(N3CCC(c4ccc(OCCN5CCN(C)C(=O)[C@H]5C)cc4)CC3)nn12 [AZD5153] + CN(CC[C@H](CSC1=CC=CC=C1)NC2=C(C=C(C=C2)S(=O)(=O)NC(=O)C3=CC=C(C=C3)N4CCC(CC4)[C@H](C5=CC=CC=C5C6=CC=C(C=C6)Cl)O)S(=O)(=O)C(F)(F)F)CCO [AZD4320] (first compound max 1 µM, 7x7, partner max 1 µM) |  |  | 0.512 | 0.518 |  |  | -0.0413 | 0.0235 | 0.0628 | 0.0999 | 0.107 |  | -0.0215 | 0.0491 | 0.0343 | 0.0145 | -0.0001 | 0.0504 |  | 0.409
CC(=O)c1c(C)c2cnc(Nc3ccc(N4CCNCC4)cn3)nc2n(C2CCCC2)c1=O [Palbociclib] + CN(CC[C@H](CSC1=CC=CC=C1)NC2=C(C=C(C=C2)S(=O)(=O)NC(=O)C3=CC=C(C=C3)N4CCC(CC4)[C@H](C5=CC=CC=C5C6=CC=C(C=C6)Cl)O)S(=O)(=O)C(F)(F)F)CCO [AZD4320] (first compound max 10 µM, 7x7, partner max 1 µM) |  |  | 0.274 | 0.458 |  |  | 0.0594 | -0.0046 | -0.0226 | -0.0228 | -0.0104 |  | -0.0157 | -0.193 | -0.0062 | 0.016 | -0.01 | -0.0207 |  | 0.205
Cc1cc2ncnn2cc1Nc1ncc2c(n1)n(C1CCOCC1)c(=O)n2C [AZD7648] + O=C(c1cc(Cc2n[nH]c(=O)c3ccccc23)ccc1F)N1CCN(C(=O)C2CC2)CC1 [Olaparib] (first compound max 10 µM, 7x7, partner max 10 µM) | 0.186 | 0.256 | 0.12 | 0.224 | 0.261 | 0.321 | 0.0165 | -0.0757 | -0.0167 | -0.0246 | 0.0057 | -0.0517 | -0.0301 | -0.0399 | 0.0443 |  | -0.0492 | -0.0526 | -0.0759 | 0.257
CCN(CCO)CCCOc1ccc2c(Nc3cc(CC(=O)Nc4cccc(F)c4)[nH]n3)ncnc2c1 [AZD2811] + O=C(c1cc(Cc2n[nH]c(=O)c3ccccc23)ccc1F)N1CCN(C(=O)C2CC2)CC1 [Olaparib] (first compound max 1 µM, 7x7, partner max 10 µM) | 0.379 | 0.805 | 0.163 | 0.186 | 0.328 | 0.236 | 0.0109 | 0.0494 | -0.0077 | 0.0397 | 0.0118 | -0.0598 | 0.0461 | 0.0112 | -0.0335 |  | 0.0358 | -0.0255 | -0.0353 | 0.0855
C=CCn1c(=O)c2cnc(Nc3ccc(N4CCN(C)CC4)cc3)nc2n1-c1cccc(C(C)(C)O)n1 [AZD1775] + C[C@@H]1COCCN1C2=NC(=NC(=C2)C3(CC3)[S@](=N)(=O)C)C4=C5C=CNC5=NC=C4 [AZD6738] (first compound max 1 µM, partner max 10 µM) | 0.816 | 0.799 | 0.705 | 0.449 | 0.984 | 0.606 | 0.0262 | 0.0428 | 0.0592 | 0.0328 | 0.0987 | -0.0011 | -0.0111 | 0.0125 | -0.0022 |  | 0.0448 | -0.0399 | -0.0843 | 0.439
Cc1c2c(nn1C)CSCc1cc(n(C)n1)CSc1cc(c3ccccc3c1)OCCCc1c(C(=O)O)n(C)c3c-2c(Cl)ccc13 [AZD5991] + CCN(CCO)CCCOc1ccc2c(Nc3cc(CC(=O)Nc4cccc(F)c4)[nH]n3)ncnc2c1 [AZD2811] (first compound max 1 µM, 7x7, partner max 1 µM) | 0.394 | 1 | 0.241 | 0.213 | 0.9 | 0.392 | -0.0331 | 0.0604 | 0.0019 |  | -0.014 | -0.0464 | 0.0225 | 0.0438 | 0.0276 | -0.0393 | 0.108 | 0.0535 | 0.027 | 0.197
COc1cccc(OCCCN)c1-c1cc(Nc2cnc(C#N)cn2)n[nH]1 [Prexasertib] + C=CCn1c(=O)c2cnc(Nc3ccc(N4CCN(C)CC4)cc3)nc2n1-c1cccc(C(C)(C)O)n1 [AZD1775] (first compound max 1 µM, partner max 1 µM) | 0.808 | 0.954 | 0.679 | 0.481 | 0.994 | 0.554 | 0.047 | 0.051 | 0.0628 | 0.0242 | 0.235 | 0.0128 | 0.0332 | 0.0413 | -0.0038 |  | 0.0725 | 0.0144 | 0.0712 | 0.505
CN(C)CCCOc1ccc(-c2ccc3ncc4c(c3c2)n(C2CCOCC2)c(=O)n4C)cn1 [AZD0156] + CCN(CCO)CCCOc1ccc2c(Nc3cc(CC(=O)Nc4cccc(F)c4)[nH]n3)ncnc2c1 [AZD2811] (first compound max 1 µM, 7x7, partner max 1 µM) | 0.332 | 0.727 | 0.0599 | 0.148 | 0.411 | 0.367 | -0.0263 | 0.112 | -0.0117 | -0.0128 | 0.0032 | -0.108 | -0.024 | -0.0005 | -0.0115 |  | -0.0276 | -0.0314 | -0.0504 | 0.136
Cc1cc2ncnn2cc1Nc1ncc2c(n1)n(C1CCOCC1)c(=O)n2C [AZD7648] + CN(C)CCCOc1ccc(-c2ccc3ncc4c(c3c2)n(C2CCOCC2)c(=O)n4C)cn1 [AZD0156] (first compound max 10 µM, 7x7, partner max 1 µM) | 0.211 | 0.4 | 0.141 | 0.336 | 0.261 | 0.545 | -0.0153 | 0.0458 | 0.0204 | 0.0078 | 0.0116 | 0.0127 | 0.0454 | 0.0137 | 0.0685 |  | 0.0154 | 0.0265 | -0.0396 | 0.133
CN(CCO)CC[C@H](CSc1ccccc1)Nc1ccc(S(=O)(=O)NC(=O)c2ccc(N3CCC([C@@H](O)c4ccccc4-c4ccc(Cl)cc4)CC3)cc2)cc1S(=O)(=O)C(F)(F)F [AZD4320] + CN(C)CCCOc1ccc(-c2ccc3ncc4c(c3c2)n(C2CCOCC2)c(=O)n4C)cn1 [AZD0156] (first compound max 1 µM, 7x7, partner max 1 µM) | 0.734 | 0.516 |  | 0.45 | 0.342 | 0.46 | -0.0565 | 0.0226 | -0.0075 | -0.0341 | 0.0341 | 0.0937 | 0.0054 | -0.0683 | -0.002 | 0.0427 | 0.0323 | -0.0521 | -0.0374 | 0.143
CCN(CCO)CCCOc1ccc2c(Nc3cc(CC(=O)Nc4cccc(F)c4)[nH]n3)ncnc2c1 [AZD2811] + C=CCn1c(=O)c2cnc(Nc3ccc(N4CCN(C)CC4)cc3)nc2n1-c1cccc(C(C)(C)O)n1 [AZD1775] (first compound max 1 µM, partner max 1 µM) | 0.482 | 0.779 | 0.197 | 0.32 | 0.947 | 0.257 | -0.0012 | -0.011 | 0.0075 | 0.0006 | -0.016 | -0.109 | -0.0257 | -0.0112 | -0.0432 |  | -0.0073 | -0.0332 | -0.0261 | 0.368
